Source: US8809344B2, “Compounds, compositions, and methods for control of hepatitis C viral infections” (priority 2008, dated 2014)

System: subgenomic genotype 2a replicon (J6 and JFH1 strains)
Assay: Genotype 2a hRluc replicon assay in Huh7 cells, Renilla luciferase readout
Assay type: cell-based
Conditions: Hepatitis C virus, Huh-7, 48 h
Experimental: Inhibition of HCV replication by compound AP0080978 (enantiomer 2 from Example 1) was also assayed by exposing cells harboring either HCV genotype 1a, HCV genotype 1b, HCV genotype 2a replicons. […] Final DMSO percentage was 1% in a total volume of 1 ml. After a 72 hour treatment period, total RNA was extracted, quantified via RiboGreen™ assay (Invitrogen-Molecular Probes, Eugene, Oreg., USA), and equivalent amounts of RNA were subjected to quantitative RT-PCR to quantify HCV RNA levels. Activity against genotype 1b was re-confirmed using Clone II cells (U.S. Pat. No. 7,049,428) that contain a stable subgenomic replicon (Con1 strain) with a Arg 1164 Gly adaptive mutation that is distinct from the Ser 1179 Ile adaptive mutation present in Clone VI cells. In this assay, cells were seeded into 96-well plates and treated in quadruplicate with varying concentration of compounds for 72 hours. For each replicate culture, HCV RNA levels were measured by blot hybridization and normalized to β-actin RNA levels. Cytotoxicity was measured using an established neutral red dye uptake assay (Korba and Gerin (1992) Antiviral Res 19:55; Okuse et al (2005) Antiviral Res 65: 23). […] Activity and toxicity against genotype 2a was evaluated in Huh7 cells harboring a stable hRluc-containing subgenomic genotype 2a replicon containing sequence from both J6 and JFH1 strains. […]

O=C(NCc1cccs1)c1nn2c(c1Cl)N[C@H](c1ccco1)C[C@@H]2C(F)(F)F (single isomer, unassigned) [Compound 80978]
EC50: > 25 µM
